In patent US10105303B2, “Oral care composition comprising zinc amino acid halides” (Colgate-Palmolive Company, priority 2012, dated 2018):
Values joined by “and” are separate entries in the source; they are usually repeats but may differ in a detail not shown here. Equal entries are not always repeated.

Columns and labels:
[1] = Dilution experiment of ZLC neat solution: visible flocculation/precipitation and pH; format: physicochemical; conditions: for final pH value: diluted sample
Method: Various dilutions of ZLC are prepared to evaluate its efficiency in producing visible precipitates and/or flocculation, which can be delivered in situ onto an oral surface or into a dental opening, such as open tubules.
A neat solution of ZLC is prepared by 1), reacting 0.5 mole of ZnO powder with 1 mole of lysine HCl in 1 liter of water at room temperature for about 2 hours, and 2) collecting the supernatant through centrifugation followed by filtration using a 0.45 micron membrane. The neat solution has a zinc concentration of 2.39% by weight, and a pH of about 7.03.
Dilution experiment is conducted by mixing the neat solution with deionized water. The neat solution is diluted by 2×, 4×, 6×, 7×, 8×, 10×, 12×, 16×, 20×, 24×, 28×, and 32×, corresponding to initial zinc concentrations of 1.20%, 0.598%, 0.398%, 0.341%, 0.299%, 0.239%, 0.199%, 0.149%, 0.120%, 0.0996%, 0.0854%, 0.0747%, by weight, respectively. The diluted samples are kept at 37° C., and the rates at which flocculation/precipitation occurred are monitored.
pH values of final diluted samples are suitable for oral care applications. […] These pH values were well within the range of 5.5 to 10, which defines the suitable range for oral care formulations.

[2] = Deposition/occlusion assay on dentine slices, confocal imaging; design: species or system human; conditions: for Thickness of surface deposits: 16-fold dilution
Method: The deposition/occlusion assay is conducted using human dentine slices and the neat solution of Example 5. The dentine slices were prepared by cutting human tooth into thin dentine sections of about 800 microns in thickness, choosing a test side, sanding said test side using a sandpaper of about 600 grit, polishing said test side using a Buehler polishing cloth and 5 micron Buehler aluminum oxide, acid-etching said dentine section in 1% (by weight) citric acid solution for about 20 seconds, sonicating said dentine section for 10 minutes, and storing said dentine section in phosphate buffered saline (PBS, pH 7.4).
For treatment, the neat solution is diluted 16-fold with water, yielding a treatment solution with initial zinc concentration of about 0.149% by weight. The dentine section is immersed in the treatment solution for 1 hour at 37° C. The treated dentine section is then removed from the treatment solution, and rinsed 4 times, each time with 1 mL of PBS. The dentine section is then dried using a paper-based tissue and examined under confocal microscope in both XYZ and XYZ modes. Subsequent treatments are conducted in the same manner.
Dentine sections, as prepared in Example 6, are repeatedly treated with ZLC dilutions with initial zinc concentration of 0.0747% by weight. […] The dentine section is examined under the confocal microscope after each treatment.

## [Zn(C6H14N2O2)2Cl]^+Cl^− [ZLC]
[1]; after a total of 19 hours, 37° C.
  Samples with flocculation and/or precipitation: all samples except the one with initial zinc concentration of 1.20%
[1]; initial zinc concentration 0.0747%
  final pH value: 7.99
[1]; initial zinc concentration 0.0854%
  final pH value: 8.13
[1]; initial zinc concentration 0.0996%
  final pH value: 8.11
[1]; initial zinc concentration 0.120%
  final pH value: 7.97
[1]; initial zinc concentration 0.149%
  final pH value: 7.99
[1]; initial zinc concentration 0.199 wt %
  final pH value: 6.80
[1]; initial zinc concentration 0.239%
  final pH value: 6.70
[1]; neat solution, zinc concentration 2.39% by weight
  pH of the neat solution: about 7.03
[1]; two hours after mixing, 37° C.
  Initial zinc concentration of the additional sample with flocculation: 0.299%
[1]; within 30 minutes from mixing with water, 37° C.
  Initial zinc concentrations of dilutions with visible flocculation: 0.149% and 0.199%
[2]; after 4 consecutive treatments, 0.0747% zinc, 10 minutes each at 37° C.
  Deposition and occlusion on dentine surface: significant surface deposition
[2]; after 12 consecutive treatments, 0.0747% zinc, 10 minutes each at 37° C.
  Deposition and occlusion on dentine surface: complete surface coverage
[2]; after second treatment, 1 hour at 37° C.
  Thickness of surface deposits: ≥ 10 microns
[2]; after third treatment, 1 hour at 37° C.
  Thickness of surface deposits: ≥ 25 microns
[2]; first treatment, 16-fold dilution (about 0.149% zinc), 1 hour at 37° C.
  Deposition and occlusion on dentine surface: noticeable deposition
[2]; initial zinc concentration 0.0747%, 10 minutes at 37° C.
  Visible precipitation during treatment: no precipitation is observed by naked eyes
[2]; second treatment, 16-fold dilution (about 0.149% zinc), 1 hour at 37° C.
  Deposition and occlusion on dentine surface: complete surface coverage, including blocking of substantially all tubule openings
[2]; third treatment, 16-fold dilution (about 0.149% zinc), 1 hour at 37° C.
  Deposition and occlusion on dentine surface: complete surface coverage and complete blocking of tubule openings
